Experimental data taken from the NIST ThermoML archive (doi:10.1016/j.jct.2015.11.027).

Details: Liquid, Vibrating wire viscometry

Cc1cccc(C)c1 [1,3-dimethylbenzene]
Details	viscosity [mPa·s]
273.54 K, 10000 kPa	0.8601
273.54 K, 25000 kPa	0.9681
273.54 K, 30000 kPa	1.008
273.55 K, 1000 kPa	0.8029
273.55 K, 5000 kPa	0.8274
273.55 K, 15000 kPa	0.8952
273.55 K, 20000 kPa	0.9293
273.56 K, 100 kPa	0.7948
283.24 K, 100 kPa	0.7
283.24 K, 10000 kPa	0.7574
283.25 K, 1000 kPa	0.707
283.25 K, 5000 kPa	0.7291
283.25 K, 15000 kPa	0.7883
283.25 K, 20000 kPa	0.8196
283.25 K, 25000 kPa	0.853
283.25 K, 30000 kPa	0.8858
293.06 K, 1000 kPa	0.6255
293.06 K, 20000 kPa	0.7224
293.06 K, 25000 kPa	0.7497
293.07 K, 100 kPa	0.6215
293.07 K, 5000 kPa	0.644
293.07 K, 10000 kPa	0.6692
293.07 K, 15000 kPa	0.6957
293.07 K, 30000 kPa	0.7757
302.87 K, 30000 kPa	0.6903
302.88 K, 5000 kPa	0.5751
302.88 K, 25000 kPa	0.6673
302.89 K, 15000 kPa	0.6204
302.9 K, 100 kPa	0.5542
302.9 K, 1000 kPa	0.5571
302.9 K, 10000 kPa	0.598
302.9 K, 20000 kPa	0.645
313.29 K, 1000 kPa	0.4982
313.3 K, 100 kPa	0.4952
313.3 K, 5000 kPa	0.5142
313.3 K, 10000 kPa	0.5341
313.31 K, 15000 kPa	0.5548
313.31 K, 20000 kPa	0.5757
313.31 K, 25000 kPa	0.5968
313.31 K, 30000 kPa	0.618
323 K, 10000 kPa	0.4847
323.01 K, 100 kPa	0.4499
323.01 K, 1000 kPa	0.4531
323.01 K, 5000 kPa	0.467
323.02 K, 15000 kPa	0.5032
323.02 K, 20000 kPa	0.522
323.02 K, 25000 kPa	0.5411
323.02 K, 30000 kPa	0.5599
333.1 K, 100 kPa	0.4087
333.11 K, 1000 kPa	0.411
333.11 K, 5000 kPa	0.4237
333.11 K, 10000 kPa	0.4414
333.11 K, 15000 kPa	0.4585
333.11 K, 20000 kPa	0.4756
333.12 K, 25000 kPa	0.4931
333.12 K, 30000 kPa	0.5101
342.97 K, 20000 kPa	0.4363
342.97 K, 25000 kPa	0.4516
342.97 K, 30000 kPa	0.4678
342.98 K, 100 kPa	0.3731
342.98 K, 1000 kPa	0.3761
342.98 K, 5000 kPa	0.3882
342.98 K, 10000 kPa	0.4036
342.98 K, 15000 kPa	0.4205
352.88 K, 20000 kPa	0.4014
352.88 K, 25000 kPa	0.4162
352.88 K, 30000 kPa	0.431
352.89 K, 100 kPa	0.3436
352.89 K, 1000 kPa	0.346
352.89 K, 5000 kPa	0.3581
352.89 K, 10000 kPa	0.3728
352.89 K, 15000 kPa	0.3867
362.69 K, 100 kPa	0.3175
362.7 K, 1000 kPa	0.32
362.7 K, 5000 kPa	0.3307
362.7 K, 10000 kPa	0.3452
362.71 K, 15000 kPa	0.3587
362.71 K, 20000 kPa	0.3726
362.71 K, 25000 kPa	0.3859
362.71 K, 30000 kPa	0.3995
372.5 K, 100 kPa	0.2936
372.5 K, 1000 kPa	0.2964
372.51 K, 5000 kPa	0.307
372.51 K, 10000 kPa	0.3199
372.51 K, 15000 kPa	0.3331
372.51 K, 20000 kPa	0.3463
372.51 K, 25000 kPa	0.3587
372.51 K, 30000 kPa	0.3715
